In PMC2878602 (Fems Yeast Research, 2010):

Assays:
[1] = molecular target: T1, Agt1 (AGT1 from ale strain A179) (Saccharomyces cerevisiae, UniProt P53048); assay: inhibition of […]-maltose uptake into intact yeast transformants; assay type: cell-based
T1 sequence (P53048 1-616): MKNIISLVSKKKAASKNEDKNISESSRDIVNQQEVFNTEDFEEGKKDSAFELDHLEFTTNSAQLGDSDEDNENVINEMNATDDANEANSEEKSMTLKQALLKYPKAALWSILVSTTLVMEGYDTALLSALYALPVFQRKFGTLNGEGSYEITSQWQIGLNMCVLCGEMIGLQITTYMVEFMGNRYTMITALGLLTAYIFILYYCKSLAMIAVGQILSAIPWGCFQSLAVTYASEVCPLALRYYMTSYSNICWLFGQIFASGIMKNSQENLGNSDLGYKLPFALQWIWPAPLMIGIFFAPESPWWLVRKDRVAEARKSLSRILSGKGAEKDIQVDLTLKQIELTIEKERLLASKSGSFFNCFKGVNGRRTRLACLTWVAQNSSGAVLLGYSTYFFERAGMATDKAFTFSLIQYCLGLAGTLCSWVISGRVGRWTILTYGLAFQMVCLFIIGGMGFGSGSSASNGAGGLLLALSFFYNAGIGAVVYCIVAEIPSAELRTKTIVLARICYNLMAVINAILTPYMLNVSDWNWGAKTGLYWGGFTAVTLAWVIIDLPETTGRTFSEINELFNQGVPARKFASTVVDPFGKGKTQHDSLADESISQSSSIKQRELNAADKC

[2] = molecular target: T2, Agt1 (AGT1 from ale strain A60) (Saccharomyces cerevisiae, UniProt P53048); assay: as above; assay type: cell-based
T2 sequence (P53048 1-616): T1 sequence (P53048 1-616)

[3] = read-out: % inhibition at 50 mM
[4] = read-out: % inhibition at 75 mM

inhibition at 50000 µM [1, 3] [%]	inhibition at 50000 µM [2, 3] [%]	inhibition at 75000 µM [1, 4] [%]	inhibition at 75000 µM [2, 4] [%]	Structure (SMILES)
79	85	–	–	OC[C@H]1O[C@H](O[C@H]2[C@H](O)[C@@H](O)[C@@H](O[C@H]3[C@H](O)[C@@H](O)C(O)O[C@@H]3CO)O[C@@H]2CO)[C@H](O)[C@@H](O)[C@@H]1O (stereo partly shown) [maltotriose]
–	–	85	94	OC[C@H]1O[C@H](O[C@H]2O[C@H](CO)[C@@H](O)[C@H](O)[C@H]2O)[C@H](O)[C@@H](O)[C@@H]1O [trehalose]
